# Measured values reported in ChEMBL document CHEMBL1201862, “PubChem BioAssay data set” (2004).
# Activity calls are given as the source filed them.
# How the values were obtained:
# HEK293 [1] = experiment: inhibition of NOD1-driven NF-kB reporter – cell-based, luminescence, uHTS, primary screen (AID 1578); assay type: functional; details: Homo sapiens
# Vero = experiment: cells; assay type: functional; details: Chlorocebus sabaeus
# HEK293 [2] = experiment: cells; assay type: functional, cell-based; details: Homo sapiens
# [3] = target: T1, Microphthalmia-associated transcription factor (Homo sapiens, UniProt O75030); experiment: reducers of TRPM1 reporter luminescence, concentration series – cell-based, SK-MEL-5, cherry-picked, set 3, MITF inhibitor project, dose response (AID 493073); assay type: functional;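 also: SK-MEL-5 melanoma cells with luciferase driven by the MITF target TRPM1 promoter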
# T1 sequence (O75030 whole entry): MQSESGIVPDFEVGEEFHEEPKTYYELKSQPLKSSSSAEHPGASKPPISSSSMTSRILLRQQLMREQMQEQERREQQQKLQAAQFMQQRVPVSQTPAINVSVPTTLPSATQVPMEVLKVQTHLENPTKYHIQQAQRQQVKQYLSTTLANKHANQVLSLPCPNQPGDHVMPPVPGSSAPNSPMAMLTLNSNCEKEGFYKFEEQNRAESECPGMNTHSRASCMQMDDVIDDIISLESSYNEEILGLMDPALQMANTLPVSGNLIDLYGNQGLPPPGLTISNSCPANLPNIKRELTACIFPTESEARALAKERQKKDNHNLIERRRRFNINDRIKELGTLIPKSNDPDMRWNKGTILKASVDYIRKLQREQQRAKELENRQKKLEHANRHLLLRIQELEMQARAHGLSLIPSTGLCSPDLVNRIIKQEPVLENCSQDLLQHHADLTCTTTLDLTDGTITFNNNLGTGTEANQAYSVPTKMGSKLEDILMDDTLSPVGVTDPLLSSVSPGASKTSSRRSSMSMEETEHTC
# [4] = target: Nucleotide-binding oligomerization domain-containing protein 2 (Homo sapiens, UniProt Q9HC29); experiment: inhibition of NOD2-driven NF-kB reporter – cell-based, luminescence, uHTS, HEK293 (AID 1566); assay type: functional
# Sequence of Nucleotide-binding oligomerization domain-containing protein 2 (Q9HC29 whole entry, the tested form may be a part): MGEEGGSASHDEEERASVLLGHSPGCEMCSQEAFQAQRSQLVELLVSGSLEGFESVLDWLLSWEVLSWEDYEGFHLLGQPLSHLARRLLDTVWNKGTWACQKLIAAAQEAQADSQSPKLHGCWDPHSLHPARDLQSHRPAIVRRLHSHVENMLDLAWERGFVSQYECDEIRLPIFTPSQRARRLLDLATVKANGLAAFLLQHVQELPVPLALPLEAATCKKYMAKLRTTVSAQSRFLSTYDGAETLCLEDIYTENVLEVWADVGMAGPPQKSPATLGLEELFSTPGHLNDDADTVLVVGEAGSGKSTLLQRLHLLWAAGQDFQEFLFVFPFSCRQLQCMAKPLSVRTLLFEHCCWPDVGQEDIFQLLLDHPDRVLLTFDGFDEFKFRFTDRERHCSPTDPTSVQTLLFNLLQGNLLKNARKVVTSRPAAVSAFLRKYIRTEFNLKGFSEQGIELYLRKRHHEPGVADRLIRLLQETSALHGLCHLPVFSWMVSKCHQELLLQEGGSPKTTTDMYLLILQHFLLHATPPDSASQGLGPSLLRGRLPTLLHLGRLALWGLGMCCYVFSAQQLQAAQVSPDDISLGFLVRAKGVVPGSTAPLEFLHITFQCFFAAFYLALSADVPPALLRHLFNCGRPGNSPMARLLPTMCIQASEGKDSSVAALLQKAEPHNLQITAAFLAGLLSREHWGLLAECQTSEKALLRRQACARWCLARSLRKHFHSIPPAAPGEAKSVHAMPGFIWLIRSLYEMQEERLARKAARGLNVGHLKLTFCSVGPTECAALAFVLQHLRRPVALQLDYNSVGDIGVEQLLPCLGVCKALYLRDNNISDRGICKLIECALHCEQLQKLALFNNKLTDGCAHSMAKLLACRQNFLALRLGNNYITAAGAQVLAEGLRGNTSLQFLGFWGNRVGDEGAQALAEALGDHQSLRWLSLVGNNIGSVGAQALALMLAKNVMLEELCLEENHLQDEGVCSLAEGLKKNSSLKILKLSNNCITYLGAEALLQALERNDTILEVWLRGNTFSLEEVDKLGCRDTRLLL
# HEK293 [5] = experiment: NOD2 signaling inhibitors in MDP-stimulated cells, cell-based, uHTS, luminescence (AID 2001); assay type: functional; details: Homo sapiens
# [6] = target: T2, RNA-binding protein pos-1 (Caenorhabditis elegans, UniProt G5EF15); experiment: disruptors of C. elegans POS-1 RNA interaction – biochemical, fluorescence polarization, dose response (AID 1964);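 also: purified POS-1 fused to maltose binding protein made in E. coli; potency of compounds blocking POS-1 binding to fluorescent RNA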
# T2 sequence (G5EF15 whole entry): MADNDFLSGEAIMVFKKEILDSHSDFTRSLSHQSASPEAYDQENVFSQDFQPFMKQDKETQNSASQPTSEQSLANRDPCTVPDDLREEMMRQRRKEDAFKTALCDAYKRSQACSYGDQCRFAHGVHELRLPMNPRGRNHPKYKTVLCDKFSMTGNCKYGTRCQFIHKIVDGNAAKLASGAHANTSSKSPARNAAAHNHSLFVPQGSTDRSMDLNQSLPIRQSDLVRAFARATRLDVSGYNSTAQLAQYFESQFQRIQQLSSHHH
# HEK293 [7] = experiment: cells; assay type: functional, cell-based; details: Homo sapiens; remark: listed apart in the source
# [8] = target: T3, Zinc finger protein mex-5 (Caenorhabditis elegans, UniProt Q9XUB2); experiment: potency of MEX-5 RNA-binding blockers – biochemical, C. elegans, fluorescence polarization, dose response (AID 1960)
# T3 sequence (Q9XUB2 whole entry): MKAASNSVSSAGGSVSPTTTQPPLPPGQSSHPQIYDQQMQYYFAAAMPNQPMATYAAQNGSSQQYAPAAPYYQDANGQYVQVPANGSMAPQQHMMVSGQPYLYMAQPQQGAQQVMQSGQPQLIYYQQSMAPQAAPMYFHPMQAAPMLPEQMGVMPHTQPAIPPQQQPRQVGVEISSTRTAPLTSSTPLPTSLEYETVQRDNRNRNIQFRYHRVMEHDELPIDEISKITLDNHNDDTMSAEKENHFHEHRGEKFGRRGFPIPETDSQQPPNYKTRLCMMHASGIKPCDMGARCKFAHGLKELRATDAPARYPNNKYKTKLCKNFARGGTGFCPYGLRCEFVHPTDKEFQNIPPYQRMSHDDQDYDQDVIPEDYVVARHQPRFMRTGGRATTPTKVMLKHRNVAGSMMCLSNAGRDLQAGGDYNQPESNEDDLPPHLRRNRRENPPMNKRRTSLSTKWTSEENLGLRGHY
# [9] = viability loss in HeLa cells – cytotoxicity control for MgcRacGAP inhibitor project, dose response (AID 624300); assay type: functional
# HEK293 [10] = experiment: cells; assay type: functional, cell-based; details: Homo sapiens; remark: listed apart in the source
# [11] = target: T4, Dual specificity protein phosphatase 3 (Homo sapiens, UniProt P51452); experiment: VHR phosphatase inhibition, dose response, selectivity assay for STEP inhibitor project, biochemical (AID 602374); assay type: functional; details: read-out: IC50_Mean
# T4 sequence (P51452 whole entry): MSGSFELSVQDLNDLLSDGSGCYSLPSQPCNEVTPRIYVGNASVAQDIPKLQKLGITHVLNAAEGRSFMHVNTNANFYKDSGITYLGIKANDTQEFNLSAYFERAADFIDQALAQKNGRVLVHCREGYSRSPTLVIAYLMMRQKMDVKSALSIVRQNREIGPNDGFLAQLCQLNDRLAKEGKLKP
# [12] = target: Tyrosine-protein phosphatase non-receptor type 5 (Homo sapiens, UniProt P54829); experiment: PTPN5 enzyme inhibition – biochemical, fluorescence intensity, uHTS hits, confirmation (AID 602372); assay type: functional; details: read-out: IC50_Mean
# Sequence of Tyrosine-protein phosphatase non-receptor type 5 (P54829 whole entry): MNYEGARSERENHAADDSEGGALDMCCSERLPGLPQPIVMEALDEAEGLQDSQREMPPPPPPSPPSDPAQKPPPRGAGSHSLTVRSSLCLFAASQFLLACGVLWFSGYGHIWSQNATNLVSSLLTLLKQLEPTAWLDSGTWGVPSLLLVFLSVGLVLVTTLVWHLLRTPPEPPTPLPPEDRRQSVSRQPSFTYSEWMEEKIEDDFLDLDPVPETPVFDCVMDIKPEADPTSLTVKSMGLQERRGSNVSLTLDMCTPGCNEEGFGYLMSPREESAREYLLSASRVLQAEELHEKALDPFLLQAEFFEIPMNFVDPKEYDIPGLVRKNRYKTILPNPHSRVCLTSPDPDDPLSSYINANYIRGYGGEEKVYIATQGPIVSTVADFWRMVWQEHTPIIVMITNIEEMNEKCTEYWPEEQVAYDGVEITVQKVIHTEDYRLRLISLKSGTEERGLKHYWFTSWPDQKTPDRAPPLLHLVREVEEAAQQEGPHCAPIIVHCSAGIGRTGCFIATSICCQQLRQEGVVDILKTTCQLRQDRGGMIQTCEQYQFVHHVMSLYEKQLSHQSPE
# [13] = target: Tyrosine-protein phosphatase non-receptor type 11 (Homo sapiens, UniProt Q06124); experiment: PTPN11 enzyme inhibitors – biochemical, selectivity assay for STEP inhibitor project, dose response (AID 602367); assay type: functional; details: read-out: IC50_Mean
# Sequence of Tyrosine-protein phosphatase non-receptor type 11 (Q06124 whole entry): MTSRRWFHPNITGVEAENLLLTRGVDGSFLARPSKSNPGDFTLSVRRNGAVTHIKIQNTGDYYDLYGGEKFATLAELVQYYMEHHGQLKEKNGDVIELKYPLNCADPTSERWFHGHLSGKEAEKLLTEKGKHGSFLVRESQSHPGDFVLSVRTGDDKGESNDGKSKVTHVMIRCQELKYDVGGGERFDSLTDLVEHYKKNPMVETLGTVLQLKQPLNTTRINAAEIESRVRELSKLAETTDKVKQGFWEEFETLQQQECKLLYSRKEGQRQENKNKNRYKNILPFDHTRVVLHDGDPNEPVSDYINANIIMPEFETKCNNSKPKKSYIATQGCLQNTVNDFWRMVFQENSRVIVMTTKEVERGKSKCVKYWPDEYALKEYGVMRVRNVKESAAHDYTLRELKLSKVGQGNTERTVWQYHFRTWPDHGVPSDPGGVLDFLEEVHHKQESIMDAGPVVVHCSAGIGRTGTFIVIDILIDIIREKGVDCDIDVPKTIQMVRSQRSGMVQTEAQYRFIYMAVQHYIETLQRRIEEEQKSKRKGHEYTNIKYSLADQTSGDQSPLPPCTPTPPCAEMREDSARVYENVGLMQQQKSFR
# [14] = target: T5, Tyrosine-protein phosphatase non-receptor type 7 (Homo sapiens, UniProt P35236); experiment: SAR analysis of chemical inhibitors of HePTP using a Fluorescent assay - Set 2. [Related pubchem assays (depositor defined):AID1059, AID1077, AID1661, AID2085, AID521]; assay type: functional
# T5 sequence (P35236 whole entry): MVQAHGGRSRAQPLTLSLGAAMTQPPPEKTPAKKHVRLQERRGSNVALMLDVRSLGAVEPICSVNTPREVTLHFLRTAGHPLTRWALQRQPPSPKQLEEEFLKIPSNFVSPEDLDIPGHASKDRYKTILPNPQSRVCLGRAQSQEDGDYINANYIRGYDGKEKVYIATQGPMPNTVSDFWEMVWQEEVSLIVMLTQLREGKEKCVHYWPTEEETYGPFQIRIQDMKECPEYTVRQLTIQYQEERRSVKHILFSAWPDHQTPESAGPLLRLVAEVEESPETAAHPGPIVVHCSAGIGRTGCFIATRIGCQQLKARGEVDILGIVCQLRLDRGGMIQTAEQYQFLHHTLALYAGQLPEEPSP
# [15] = target: T4, Dual specificity protein phosphatase 3; experiment: SAR VHR1 Fluorescent Assay for In Vitro dose response studies Set 2. [Related pubchem assays (depositor defined):AID1654, AID1661, AID1878]; assay type: functional
Compound,EC50 (HEK293 [1]),CC50 (Vero),IC50 (HEK293 [2]),AC50 [3],EC50 [4],IC50 (HEK293 [5]),EC50 [6],IC50 (HEK293 [7]),EC50 [8],CC50 [9],IC50 (HEK293 [10]),IC50 [11],IC50 [12],IC50 [13],IC50 [14],IC50 [15]
C=CCN1C(=O)NC(=O)/C(=C/C=C/c2ccccc2)C1=O,> 20 µM (inactive),> 25 µM (active),> 20 µM (inactive),5.94 µM (active),> 20 µM (inactive),12.4 µM (inactive),> 300 µM (not active),> 20 µM (inactive),> 300 µM (not active),75.4 µM (active),9.21 µM (active),–,–,–,–,–
CN1CCN(C(S)=Nc2ccc(S(N)(=O)=O)cc2)CC1,–,–,–,–,–,–,–,–,–,–,–,1.32 µM (active),27.8 µM (inactive),6.54 µM (active),27.4 µM (active),15.4 µM (active)
NS(=O)(=O)c1ccc(NC(=S)N2CCN(c3ccccc3)CC2)cc1,–,–,–,–,–,–,–,–,–,–,–,–,–,–,72.8 µM (active),67.2 µM (active)
